Experimental data published in patent US20180161366A1, “METHODS OF OBTAINING MONONUCLEAR BLOOD CELLS AND USES THEREOF” (Biokine Therapeutics Ltd., priority 2015, published 2018).
Several values for one entry are separate records, joined by “and”; a condition that tells them apart may be missing. Equal values may be shown once. Read-outs that look alike come from different tables or passages of the source. Non-standard residues stand in square brackets, D forms with d. *: point of attachment. Benzoyl(4-F) = O=C(c1ccc(F)cc1)*; Cit = NC(=O)NCCC[C@H](N)C(=O)O

Tests used:
healthy subjects [1] = assay type: in vivo; details: for Mean CD34+ count (HSPC): four hours post first administration, baseline 5.8/μL, placebo 8; for Mean count of CD34+ HSPC: four hours post second administration, placebo 9
Procedure: (§1) White blood cell count—Blood count assays were performed using Beckman-Coulter analyzers (GENS,750,000).
(§2) Flow cytometry—Cells (100 μl) were stained for 30 minutes in 0.1 ml FACS buffer with fluorescence antibodies directed against Human CD3, CD19, CD56, CD4, CD8, CCR7, CD83, lin-cocktail, CD11c, CD45RA, CD25, /Foxp3+, CD16, CD34, CD38 CD105 or matched isotype controls and mouse CD3, and B220 all from eBioscience San Diego, Calif. 92121 USA. Following staining the cells were washed with FACS buffer and analyzed by flow cytometry (5 μl per sample) using the FACS Caliber Flow Cytometer (BD Biosciences). Data was analyzed using software from CellQuest (version 3.3; BD Biosciences). Cells were first gated according to the forward scatter and side scatter parameters to exclude dead cells and the number and percent of each cell population (e.g. HSPCs, T cells, B cells, NK cells, NKT cells and DCs) was analyzed.
The first part of the study was a randomized, double-blind, placebo-controlled dose escalation. […] After obtaining informed consent, BL-8040 was administered subcutaneously (SC) once daily on 2 consecutive days at a dose of 0.5, 0.75 or 1 mg/kg.

healthy subjects [2] = assay: Open label single injection of BL-8040 followed by leukapheresis: composition of collected graft and kinetics of WBC, ImDC and T cells; assay type: in vivo, human
Procedure: FIG. 1 is a graph illustrating kinetic analysis of the effect of BL-8040 administration on mobilization of white blood cells (WBC) to the peripheral blood. The figure presents a time course of total WBC in the peripheral blood of subjects in response to a single SC administration of 1 mg/kg BL-8040 as determined by flow cytometry.
FIG. 2 is a graph illustrating kinetic analysis of the effect of BL-8040 administration on mobilization of immature dendritic cells (ImDC) to the peripheral blood. The figure presents a time course of ImDC in the peripheral blood of subjects in response to a single SC administration of 1 mg/kg BL-8040 as determined by flow cytometry.
FIG. 3 is a graph illustrating kinetic analysis of the effect of BL-8040 administration on mobilization of CD3+ T cells to the peripheral blood. The figure presents a time course of CD3+ T in the peripheral blood of subjects in response to a single SC administration of 1 mg/kg BL-8040 as determined by flow cytometry.
Leukapheresis—The leukapheresis procedure was commenced approximately 4 hours (±1 hour) post BL-8040 injection. Eighteen (18) Liter apheresis was collected at a Bone Marrow Transplant unit using the Spectra Optia® Apheresis System.
as §1, §2
The second part of the study was an open label test. 8 healthy subjects received a single injection of BL-8040 (1 mg/kg) and 3-4 hours later were subjected to a standard leukapheresis (18 L) procedure. The composition of the collected graft was tested for the number of WBCs per kg, number of CD34+ HSPC per kg and number and type of T cells, B cells, NK cells and dendritic cells (DC) per kg.

C57BL mice = assay: Number of CD3+ T cells and B220+ B cells in spleen and peripheral lymph nodes of mice (FIG. 4); assay type: in vivo, mouse; details: 5 mg/kg
Procedure: FIG. 4 are graphs presenting the number of CD3+ T cells and B220+ B cells in spleen and peripheral lymph nodes (PLN) of C57BL mice prior (denoted as control) and following administration of 5 mg/kg BL-8040, as determined by flow cytometry.
as §2

C57BL/6 mice = assay: BL8040-induced mobilization of T cell subsets in naive mice or mice bearing pancreatic or melanoma cancer; assay type: in vivo; details: 400 μg/mouse SC
Procedure: Six-to 8-week-old female or male C57BL/6 were purchased from Harlan laboratories. Mice were maintained and all animal experiments were conducted according to the protocols approved by the institutional animal care of the Hebrew university.
Female C57BL/6 mice were inoculated subcutaneously at the right flank with 1× 10^6 B16F10 cells in 0.1 mL PBS. When tumors reached 90 to 150 mm^2 in size (after two weeks), mice were treated with BL-8040, according to the below regimen.
1.5×10^6 Livmet cells/10 μl PBS and 10 μl Matrigel (BD Biosciences) were injected into the pancreas of male C57BL/6 mice. Mice were treated with BL8040, 3 weeks after the injection.
BL8040 (400 μg/mouse dissolved in phosphate-buffered saline) was administered once by subcutaneous injection and 2 h later the blood was collected into tube with heparin.
Fluorescent-activated cell sorting analysis was performed on whole blood (day 0) and expanded cells (day 10).
Whole blood was treated with red blood cell lysis solution (0 155 M NH4Cl, 0.01 M KHCO3, 0.01 mmol/l EDTA, pH 7.4) in order to lyse the erythrocytes. Isolated cells were washed with PBS, re-suspended with 0.1 ml of PBS and stained with fluorescent antibodies directed against specific surface markers.
Cells were incubated with mobs: CD8-PE, CD4-APC, CD3-FITC, CD25-PE-Cy7, CD69-PerCP, CD44-PE-Cy7, CD137-PE-Cy7, CD279-FITC, CD62L-FITC and CD223-FITC (eBioscience).

CXCR4 receptor = CXCR4 receptor (Homo sapiens, UniProt P61073); details: cited from earlier work
Chain of CXCR4 receptor (P61073 whole entry): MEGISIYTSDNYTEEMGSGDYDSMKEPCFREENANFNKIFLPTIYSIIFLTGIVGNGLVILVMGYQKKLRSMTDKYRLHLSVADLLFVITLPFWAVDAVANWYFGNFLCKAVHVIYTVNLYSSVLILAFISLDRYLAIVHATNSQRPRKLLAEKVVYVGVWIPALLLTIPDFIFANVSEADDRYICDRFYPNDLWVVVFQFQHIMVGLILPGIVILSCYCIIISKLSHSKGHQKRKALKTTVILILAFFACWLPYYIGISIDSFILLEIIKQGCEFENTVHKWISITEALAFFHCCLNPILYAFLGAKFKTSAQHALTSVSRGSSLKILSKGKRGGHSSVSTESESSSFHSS

mice = details: single injection; cited from earlier work
[3] = test system: myeloid leukemia, hematopoietic tumors and non-small cell lung cancer; details: cited from earlier work
[4] = peripheral blood, 0.5-1 mg/kg SC

4F-benzoyl-Arg-Arg-Nal-Cys-Tyr-Cit-Lys-DLys-Pro-Tyr-Arg-Cit-Cys-Arg-NH2 ({Benzoyl(4-F)}-RR[Nal]CY[Cit]K[dK]PYR[Cit]CR-NH2; not fully specified; printed as 4F-benzoyl-Arg-Arg-Nal-Cys-Tyr-Cit-Lys-DLys-Pro-Tyr-Arg-Cit-Cys-Arg-NH2; also: cyclised, bridge not given here) [BL-8040]
mean WBC count (healthy subjects [1]; 4 hr post BL-8040 administration, baseline 6.3): 2.97e+10 L⁻¹ | Mean CD34+ count (HSPC) (healthy subjects [1]; 0.5 mg/kg): 37 cells/μL | Mean CD34+ count (HSPC) (healthy subjects [1]; 0.75 mg/kg): 31 cells/μL | Mean CD34+ count (HSPC) (healthy subjects [1]; 1 mg/kg): 35 cells/μL | Mean count of CD34+ HSPC (healthy subjects [1]; 0.5 mg/kg): 38 cells/μL | Mean count of CD34+ HSPC (healthy subjects [1]; 0.75 mg/kg): 46 cells/μL | Mean count of CD34+ HSPC (healthy subjects [1]; 1 mg/kg): 58 cells/μL | safety and tolerability (healthy subjects [1]; healthy subjects, SC once daily on 2 consecutive days, all doses tested (0.5-1 mg/kg)): safe and well tolerated | primary treatment related adverse effects (healthy subjects [1]; healthy subjects, SC, 0.5-1 mg/kg): mild to moderate transient injection site and systemic reactions | mobilization of MSC and HPC colony forming cells (healthy subjects [1]; [4]): rapid mobilization | mobilization of T, B and NK cells (healthy subjects [1]; [4]): substantial mobilization | duration of CXCR4 receptor occupancy and pharmacodynamic effect (healthy subjects [1]; post dosing): ≥ 24 h | B cells (CD19+), % of graft (healthy subjects [2]; 3.5-8 hours following 1 mg/kg): 13.1% | B cells (CD19+), median (healthy subjects [2]; 3.5-8 hours following 1 mg/kg): 2.03 × 10^8/Kg and 2.03 (0.32-2.6) × 10^8/Kg | Central memory CD4 T cells (CD3+/CD4+ CD45RA−/CCR7+), % of CD4+ cells (healthy subjects [2]; 3.5-8 hours following 1 mg/kg): 37.99% | Central memory CD8 T cells (CD3+/CD8+ CD45RA−/CCR7+), % of CD8 cells (healthy subjects [2]; 3.5-8 hours following 1 mg/kg): 33.1% | Cytotoxic T cells (CD3+CD8+), % of graft (healthy subjects [2]; 3.5-8 hours following 1 mg/kg): 22.5% | Cytotoxic T cells (CD3+CD8+), median (healthy subjects [2]; 3.5-8 hours following 1 mg/kg): 2.89 × 10^8/Kg and 2.89 (1.7-4.9) × 10^8/Kg | Effector CD4 T cells (CD3+/CD4+ CD45RA+/CCR7−), % of CD4+ cells (healthy subjects [2]; 3.5-8 hours following 1 mg/kg): 6.24% | Effector CD8 T cells (CD3+/CD8+ CD45RA+/CCR7−), % of CD8 cells (healthy subjects [2]; 3.5-8 hours following 1 mg/kg): 1.09% | Effector memory CD4 T cells (CD3+/CD4+ CD45RA−/CCR7−), % of CD4+ cells (healthy subjects [2]; 3.5-8 hours following 1 mg/kg): 21.19% | Effector memory CD8 T cells (CD3+/CD8+ CD45RA−/CCR7−), % of CD8 cells (healthy subjects [2]; 3.5-8 hours following 1 mg/kg): 1.94% | HSPC (CD34+), % of graft (healthy subjects [2]; 3.5-8 hours following 1 mg/kg): 0.78% | HSPC (CD34+), median (healthy subjects [2]; 3.5-8 hours following 1 mg/kg): 11.89 × 10^6/Kg and 11.89 (5.1-15.0) × 10^6/Kg | Immature DCs (lin-CD11c+CD83−), % of graft (healthy subjects [2]; 3.5-8 hours following 1 mg/kg): 0.95% | Immature DCs (lin-CD11c+CD83−), median (healthy subjects [2]; 3.5-8 hours following 1 mg/kg): 1.16e+07 kg⁻¹ | NK cells (CD3−CD56+), % of graft (healthy subjects [2]; 3.5-8 hours following 1 mg/kg): 4.76% | NK cells (CD3−CD56+), median (healthy subjects [2]; 3.5-8 hours following 1 mg/kg): 0.53 × 10^8/Kg and 0.53 (0.15-1.55) × 10^8/Kg | NKT cells (CD3+CD56+), % of graft (healthy subjects [2]; 3.5-8 hours following 1 mg/kg): 1.2% | NKT cells (CD3+CD56+), median (healthy subjects [2]; 3.5-8 hours following 1 mg/kg): 9.8e+06 kg⁻¹ | Naïve CD4 T cells (CD3+/CD4+ CD45RA+/CCR7+), % of CD4+ cells (healthy subjects [2]; 3.5-8 hours following 1 mg/kg): 34.61% | Naïve CD8 T cells (CD3+/CD8+ CD45RA+/CCR7+), % of CD8 cells (healthy subjects [2]; 3.5-8 hours following 1 mg/kg): 63.89% | Regulatory T cells (CD4+CD25+Foxp3+), % of graft (healthy subjects [2]; 3.5-8 hours following 1 mg/kg): 1.28% | Regulatory T cells (CD4+CD25+Foxp3+), median (healthy subjects [2]; 3.5-8 hours following 1 mg/kg): 1.61e+07 kg⁻¹ | T cells (CD3+), % of graft (healthy subjects [2]; 3.5-8 hours following 1 mg/kg): 48.08% | T cells (CD3+), median (healthy subjects [2]; 3.5-8 hours following 1 mg/kg): 7.32 × 10^8/Kg and 7.32 (4.0-8.5) × 10^8/Kg | T helper cells (CD3+CD4+), % of graft (healthy subjects [2]; 3.5-8 hours following 1 mg/kg): 21.7% | T helper cells (CD3+CD4+), median (healthy subjects [2]; 3.5-8 hours following 1 mg/kg): 3.3 × 10^8/Kg and 3.3 (1.44-3.9) × 10^8/Kg | number of T cells in the periphery at 24 hours (healthy subjects [2]; 24 hours following administration, FIG. 3): remains high | time at which number of T cells in the periphery started to decline (healthy subjects [2]; following administration of BL-8040): 48 h | Fold Difference (BL-8040/AMD3100), B cells CD19 (healthy subjects [2]; ratio of medians): 2.00 | Fold Difference (BL-8040/AMD3100), Cytotoxic T cells CD3+CD8+ (healthy subjects [2]; ratio of medians): 2.22 | Fold Difference (BL-8040/AMD3100), HSPC CD34+ (healthy subjects [2]; ratio of medians): 4.10 | Fold Difference (BL-8040/AMD3100), NK cells CD3−CD56+ (healthy subjects [2]; ratio of medians): 1.77 | Fold Difference (BL-8040/AMD3100), T cells CD3+ (healthy subjects [2]; ratio of medians): 1.59 | Fold Difference (BL-8040/AMD3100), T helper cells CD3+CD4+ (healthy subjects [2]; ratio of medians): 1.03 | Fold Difference (BL-8040/G-CSF), Cytotoxic T cells CD3+CD8+ (healthy subjects [2]; ratio of medians): 7.23 | Fold Difference (BL-8040/G-CSF), HSPC CD34+ (healthy subjects [2]; ratio of medians): 2.83 | Fold Difference (BL-8040/G-CSF), NK cells CD3−CD56+ (healthy subjects [2]; ratio of medians): 2.65 | Fold Difference (BL-8040/G-CSF), T cells CD3+ (healthy subjects [2]; ratio of medians): 5.63 | Fold Difference (BL-8040/G-CSF), T helper cells CD3+CD4+ (healthy subjects [2]; ratio of medians): 3 | increase in the total number of WBC (healthy subjects [2]; single 1 mg/kg SC, FIG. 1): 5-7 fold | time within which mobilization of DCs and T cells occurs (healthy subjects [2]; single administration, FIGS. 2-3): 3 to 4 h | source of mobilized T cells (spleen and peripheral lymph nodes counts) (C57BL mice): T cells are mobilized from the lymph node into the blood | CD69+ CD25+ activated T cells in collected cells (C57BL/6 mice; cancerous mice vs naive mice, FIG. 6B): more CD69+ CD25+ activated T cells | mobilization of CD4 and CD8 cells (C57BL/6 mice; tumor bearing mice vs non injected or naive mice, blood 2 h later, FIG. 6A): increased mobilization of both CD4 and CD8 cells | binding to the CXCR4 receptor (CXCR4 receptor): high affinity and long receptor occupancy | mobilization of long term repopulating stem cells (mice): mobilized long term repopulating stem cells sufficient for transplantation | toxicity against tumors [3]: toxic against several tumors
